Among the targets are ATM (human) (UniProt Q13315); CDKL2 (human) (UniProt Q92772); LRRK2 (human) (UniProt Q5S007); PIK3C2B (human) (UniProt O00750); PRKDC (human) (UniProt P78527); SGK223 (human) (UniProt Q86YV5); ARAF (human) (UniProt P10398); CDK10 (human) (UniProt Q15131); TESK2 (human) (UniProt Q96S53).

Usually IC50 stands for the concentration at which inhibition is half-maximal. A high value points to a need for much substance.

PRKDC (human), sequence (P78527 whole entry, looked up): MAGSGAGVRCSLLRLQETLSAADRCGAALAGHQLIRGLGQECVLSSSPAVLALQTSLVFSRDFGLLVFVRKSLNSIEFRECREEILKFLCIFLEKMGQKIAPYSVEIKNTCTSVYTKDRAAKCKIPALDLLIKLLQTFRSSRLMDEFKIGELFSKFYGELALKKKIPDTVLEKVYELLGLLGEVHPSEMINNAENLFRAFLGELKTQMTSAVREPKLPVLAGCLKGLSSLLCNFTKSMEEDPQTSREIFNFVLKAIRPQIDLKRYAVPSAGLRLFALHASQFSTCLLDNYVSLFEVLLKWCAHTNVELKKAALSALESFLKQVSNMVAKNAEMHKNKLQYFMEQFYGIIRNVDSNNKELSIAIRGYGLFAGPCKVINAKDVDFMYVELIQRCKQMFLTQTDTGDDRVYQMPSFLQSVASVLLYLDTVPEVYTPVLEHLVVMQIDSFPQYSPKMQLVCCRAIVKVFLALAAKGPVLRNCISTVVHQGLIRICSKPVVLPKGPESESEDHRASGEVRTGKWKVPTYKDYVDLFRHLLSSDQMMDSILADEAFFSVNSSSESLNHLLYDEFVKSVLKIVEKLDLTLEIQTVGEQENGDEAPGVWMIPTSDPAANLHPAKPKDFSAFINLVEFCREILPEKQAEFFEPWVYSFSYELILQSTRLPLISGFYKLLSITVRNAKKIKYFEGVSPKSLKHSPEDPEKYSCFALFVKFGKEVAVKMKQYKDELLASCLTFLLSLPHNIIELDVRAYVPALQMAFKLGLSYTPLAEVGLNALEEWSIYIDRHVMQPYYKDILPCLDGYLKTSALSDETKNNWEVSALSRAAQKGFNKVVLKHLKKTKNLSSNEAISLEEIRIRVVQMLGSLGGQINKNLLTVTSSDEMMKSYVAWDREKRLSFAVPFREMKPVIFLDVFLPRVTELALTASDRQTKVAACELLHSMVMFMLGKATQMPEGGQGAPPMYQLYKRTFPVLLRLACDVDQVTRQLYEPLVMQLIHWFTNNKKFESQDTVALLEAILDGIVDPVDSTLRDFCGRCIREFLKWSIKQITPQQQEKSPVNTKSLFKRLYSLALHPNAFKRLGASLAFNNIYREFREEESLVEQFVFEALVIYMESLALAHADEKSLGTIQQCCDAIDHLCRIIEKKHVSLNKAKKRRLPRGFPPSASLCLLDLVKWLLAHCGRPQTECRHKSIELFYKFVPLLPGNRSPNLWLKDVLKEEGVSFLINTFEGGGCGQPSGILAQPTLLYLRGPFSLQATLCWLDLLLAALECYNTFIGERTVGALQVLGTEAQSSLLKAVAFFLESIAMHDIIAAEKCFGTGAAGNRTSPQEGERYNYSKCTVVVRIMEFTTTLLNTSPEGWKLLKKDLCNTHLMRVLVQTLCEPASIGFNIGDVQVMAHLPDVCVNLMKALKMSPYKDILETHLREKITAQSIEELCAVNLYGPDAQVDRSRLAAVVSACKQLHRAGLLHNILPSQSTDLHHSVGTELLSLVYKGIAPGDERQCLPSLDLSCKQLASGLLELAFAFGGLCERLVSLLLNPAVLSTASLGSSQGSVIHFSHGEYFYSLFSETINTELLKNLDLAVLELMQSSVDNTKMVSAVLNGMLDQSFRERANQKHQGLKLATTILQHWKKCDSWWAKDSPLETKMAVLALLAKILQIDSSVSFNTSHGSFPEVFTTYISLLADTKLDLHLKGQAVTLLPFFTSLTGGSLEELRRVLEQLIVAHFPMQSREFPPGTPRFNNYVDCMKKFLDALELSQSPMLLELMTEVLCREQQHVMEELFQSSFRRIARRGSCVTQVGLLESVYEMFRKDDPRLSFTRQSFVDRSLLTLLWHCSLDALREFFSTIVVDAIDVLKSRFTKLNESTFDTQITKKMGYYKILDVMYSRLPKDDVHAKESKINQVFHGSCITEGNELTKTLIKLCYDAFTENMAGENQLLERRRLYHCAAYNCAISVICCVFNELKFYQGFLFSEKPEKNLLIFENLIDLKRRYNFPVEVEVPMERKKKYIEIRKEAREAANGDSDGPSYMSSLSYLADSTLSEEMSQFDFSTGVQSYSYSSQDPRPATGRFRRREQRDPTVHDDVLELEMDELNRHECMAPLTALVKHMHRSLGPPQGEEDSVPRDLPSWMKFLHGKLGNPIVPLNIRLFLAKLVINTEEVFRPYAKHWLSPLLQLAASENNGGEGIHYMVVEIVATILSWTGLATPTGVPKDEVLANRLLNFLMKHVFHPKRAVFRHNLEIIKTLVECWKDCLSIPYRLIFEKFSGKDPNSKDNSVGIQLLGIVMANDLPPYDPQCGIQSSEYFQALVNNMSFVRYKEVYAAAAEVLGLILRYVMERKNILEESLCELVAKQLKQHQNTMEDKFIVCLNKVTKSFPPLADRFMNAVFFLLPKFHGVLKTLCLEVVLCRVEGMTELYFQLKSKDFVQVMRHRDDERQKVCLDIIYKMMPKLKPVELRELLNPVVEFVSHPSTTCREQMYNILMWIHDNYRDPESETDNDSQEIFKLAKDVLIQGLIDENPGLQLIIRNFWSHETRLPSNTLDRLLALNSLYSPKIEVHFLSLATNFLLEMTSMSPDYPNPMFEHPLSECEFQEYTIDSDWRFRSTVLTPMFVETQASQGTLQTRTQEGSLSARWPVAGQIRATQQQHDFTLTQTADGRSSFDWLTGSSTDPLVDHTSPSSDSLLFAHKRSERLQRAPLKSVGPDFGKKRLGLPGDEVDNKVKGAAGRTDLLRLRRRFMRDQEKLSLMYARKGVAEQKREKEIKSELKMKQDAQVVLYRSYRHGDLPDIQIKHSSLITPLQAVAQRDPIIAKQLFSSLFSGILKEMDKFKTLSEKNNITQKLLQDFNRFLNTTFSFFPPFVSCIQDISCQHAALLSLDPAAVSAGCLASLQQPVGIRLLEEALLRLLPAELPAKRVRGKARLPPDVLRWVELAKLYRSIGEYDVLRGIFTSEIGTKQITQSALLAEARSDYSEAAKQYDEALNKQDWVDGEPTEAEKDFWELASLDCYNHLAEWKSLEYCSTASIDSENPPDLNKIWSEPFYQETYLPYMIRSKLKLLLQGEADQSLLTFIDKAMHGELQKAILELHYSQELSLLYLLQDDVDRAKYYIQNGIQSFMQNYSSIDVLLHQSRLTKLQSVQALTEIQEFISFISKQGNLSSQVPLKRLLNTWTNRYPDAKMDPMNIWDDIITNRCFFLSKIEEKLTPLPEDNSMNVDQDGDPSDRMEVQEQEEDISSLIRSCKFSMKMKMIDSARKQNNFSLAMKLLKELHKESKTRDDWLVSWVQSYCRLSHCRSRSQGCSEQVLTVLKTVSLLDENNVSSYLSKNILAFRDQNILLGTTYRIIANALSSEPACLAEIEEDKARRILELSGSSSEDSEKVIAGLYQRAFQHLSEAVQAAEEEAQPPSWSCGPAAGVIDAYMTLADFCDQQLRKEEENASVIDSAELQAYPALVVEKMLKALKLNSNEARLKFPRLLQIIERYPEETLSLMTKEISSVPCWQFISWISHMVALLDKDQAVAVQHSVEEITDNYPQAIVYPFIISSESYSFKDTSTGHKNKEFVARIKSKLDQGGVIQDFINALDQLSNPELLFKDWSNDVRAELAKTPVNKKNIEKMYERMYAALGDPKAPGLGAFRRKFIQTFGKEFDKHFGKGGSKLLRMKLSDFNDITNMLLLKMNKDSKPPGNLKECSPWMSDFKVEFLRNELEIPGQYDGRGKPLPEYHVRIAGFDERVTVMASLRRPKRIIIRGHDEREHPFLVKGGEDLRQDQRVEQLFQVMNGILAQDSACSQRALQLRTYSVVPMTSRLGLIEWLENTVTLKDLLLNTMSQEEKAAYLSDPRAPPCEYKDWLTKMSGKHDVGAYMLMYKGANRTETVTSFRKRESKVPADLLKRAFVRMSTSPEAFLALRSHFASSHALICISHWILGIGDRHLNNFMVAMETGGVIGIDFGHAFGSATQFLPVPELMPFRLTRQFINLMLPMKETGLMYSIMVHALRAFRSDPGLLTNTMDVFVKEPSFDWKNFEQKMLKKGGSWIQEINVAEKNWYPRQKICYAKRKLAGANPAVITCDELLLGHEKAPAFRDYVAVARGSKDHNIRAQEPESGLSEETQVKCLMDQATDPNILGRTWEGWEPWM
ARAF (human), sequence (P10398 whole entry, looked up): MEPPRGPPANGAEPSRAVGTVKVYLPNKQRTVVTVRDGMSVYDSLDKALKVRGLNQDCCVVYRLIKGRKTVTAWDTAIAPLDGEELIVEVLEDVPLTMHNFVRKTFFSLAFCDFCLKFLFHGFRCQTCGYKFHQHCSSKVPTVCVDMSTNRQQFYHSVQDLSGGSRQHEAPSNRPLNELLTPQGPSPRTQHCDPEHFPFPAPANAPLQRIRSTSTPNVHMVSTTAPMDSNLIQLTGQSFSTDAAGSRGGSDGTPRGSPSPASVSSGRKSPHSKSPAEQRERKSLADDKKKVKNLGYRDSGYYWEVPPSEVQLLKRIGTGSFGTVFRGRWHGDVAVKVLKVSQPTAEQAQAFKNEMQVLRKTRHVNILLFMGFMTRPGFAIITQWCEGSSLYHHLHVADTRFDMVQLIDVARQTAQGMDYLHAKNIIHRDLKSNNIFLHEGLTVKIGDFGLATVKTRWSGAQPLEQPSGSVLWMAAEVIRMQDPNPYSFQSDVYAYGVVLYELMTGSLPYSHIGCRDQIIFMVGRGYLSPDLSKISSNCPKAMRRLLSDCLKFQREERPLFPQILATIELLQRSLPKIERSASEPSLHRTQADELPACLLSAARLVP
CDK10 (human), sequence (Q15131 whole entry, looked up): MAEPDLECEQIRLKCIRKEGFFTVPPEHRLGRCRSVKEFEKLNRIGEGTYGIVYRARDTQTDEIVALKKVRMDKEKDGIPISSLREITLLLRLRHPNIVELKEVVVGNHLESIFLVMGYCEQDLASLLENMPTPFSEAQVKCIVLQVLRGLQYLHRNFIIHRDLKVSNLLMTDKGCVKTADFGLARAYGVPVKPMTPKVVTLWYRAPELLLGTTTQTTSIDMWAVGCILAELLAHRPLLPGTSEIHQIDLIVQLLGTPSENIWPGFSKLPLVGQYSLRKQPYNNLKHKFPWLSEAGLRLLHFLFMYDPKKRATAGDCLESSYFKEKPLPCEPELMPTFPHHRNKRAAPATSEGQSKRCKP

Consider `CC[C@@H](CO)Nc1nc(NCc2ccccc2)c2ncn(C(C)C)c2n1`, for which the IC50 against ATM (human), against CDKL2 (human), against LRRK2 (human), against PIK3C2B (human), on PRKDC (human) and on SGK223 (human) was greater than 10 µM each time.
In the case of `CN[C@@H]1C[C@H]2O[C@@](C)([C@@H]1OC)n1c3ccccc3c3c4c(c5c6ccccc6n2c5c31)C(=O)NC4`, the IC50 on ARAF (human) was greater than 10 µM; on ATM (human), greater than 10 µM; at CDK10 (human) it was 0.87 µM; on PRKDC (human) it was greater than 10 µM; at SGK223 (human), 5.05 µM.
For `CC(C)(C)c1cnc(CSc2cnc(NC(=O)C3CCNCC3)s2)o1`, the concentration for half-maximal inhibition (IC50) against ATM (human), against PRKDC (human) and on TESK2 (human) was greater than 10 µM throughout.
